Source: US20250034167A1, “HETEROCYCLIC COMPOUNDS AND METHODS OF USE” (AMGEN INC., priority 2021, published 2025)
Like-named read-outs stand apart in the source and are kept apart here.

Experiments:
[1] = test system: Phosphorylation of ERK1/2 in AsPC-1 cells; assay: Phospho-ERK1/2 MSD Assay; assay type: cell-based
Description: Sixteen hours prior to compound treatment, AsPC-1 cells were seeded in 96-well cell culture plates at a density of 25,000 cells/well and incubated at 37° C., 5% CO2. A compound dose-response titration was diluted in growth media, added to appropriate wells of a cell culture plate, and then incubated at 37° C., 5% CO2 for 2 hours.

[2] = biological target: His-tagged KRAS G12D protein (Homo sapiens, UniProt P01116, G12D); assay: biochemical
Chain of His-tagged KRAS G12D protein (P01116 1-188 isoform P01116-2 G12D): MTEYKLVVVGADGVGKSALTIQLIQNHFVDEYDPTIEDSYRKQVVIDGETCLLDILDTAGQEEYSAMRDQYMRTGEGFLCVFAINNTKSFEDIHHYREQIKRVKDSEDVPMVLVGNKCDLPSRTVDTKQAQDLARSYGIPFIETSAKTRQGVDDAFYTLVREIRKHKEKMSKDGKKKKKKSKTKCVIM

[3] = Homo sapiens, ASPC1, 2 h, read-out: 2 h p-ERK (AsPC-1 cells), IC50, AsPC-1 cells, 2 h compound treatment
[4] = read-out: 2 h p-ERK (AsPC-1 cells), IC50, AsPC-1 cells, 2 h compound treatment
[5] = Homo sapiens, ASPC1, read-out: 2 h p-ERK (AsPC-1 cells), IC50, AsPC-1 cells, 2 h compound treatment

Structure (SMILES)	IC50 [1, 3] [nM]	IC50 [2] [nM]	IC50 [1, 4] [nM]	IC50 [1, 5] [nM]
CCc1c(F)ccc2cc(O)cc(-c3ncc4c(N5CC6CC(O)C(C6)C5)nc(OC[C@@]56CCCN5C[C@H](F)C6)nc4c3F)c12 (single isomer, unassigned) [Example 23]	–	31	2380	–
CCc1c(F)ccc2cc(O)cc(-c3ncc4c(N5CC6CC(O)C(C6)C5)nc(OC[C@@]56CCCN5C[C@H](F)C6)nc4c3F)c12 (single isomer, unassigned) [Example 24]	–	2	14	–
C#Cc1c(F)ccc2cc(O)cc(-c3ncc4c(N5CC6CC(O)C(C6)C5)nc(OC[C@@]56CCCN5C[C@H](F)C6)nc4c3F)c12 (single isomer, unassigned) [Example 27]	–	6	1030	–
C#Cc1c(F)ccc2cc(O)cc(-c3ncc4c(N5CC6CC(O)C(C6)C5)nc(OC[C@@]56CCCN5C[C@H](F)C6)nc4c3F)c12 (single isomer, unassigned) [Example 28]	–	1	36	–
CCc1cccc2cc(O)cc(-c3ncc4c(N5CC6CC(O)C(C6)C5)nc(OC[C@@]56CCCN5C[C@H](F)C6)nc4c3F)c12 (single isomer, unassigned) [Example 29]	31	1	–	–
Oc1cc(Cl)c(C2CC2)c(-c2ncc3c(N4CC5CC(O)C(C5)C4)nc(OC[C@@]45CCCN4C[C@H](F)C5)nc3c2F)c1 (single isomer, unassigned) [Example 30]	399	3	–	–
C#Cc1cccc2cc(O)cc(-c3ncc4c(N5CC6CC(O)C(C6)C5)nc(OC[C@@]56CCCN5C[C@H](F)C6)nc4c3F)c12 (single isomer, unassigned) [Example 31]	32	2	–	–
CCc1c(F)ccc2cc(O)cc(-c3ncc4c(N5CCCC(O)(C(F)F)C5)nc(OC[C@@]56CCCN5C[C@H](F)C6)nc4c3F)c12 (single isomer, unassigned) [Example 39]	–	2	13	–
CCc1c(F)ccc2cc(O)cc(-c3ncc4c(N5CCCC(O)(C(F)F)C5)nc(OC[C@@]56CCCN5C[C@H](F)C6)nc4c3F)c12 (single isomer, unassigned) [Example 40]	–	15	571	–
C#Cc1c(F)ccc2cc(O)cc(-c3ncc4c(N5CCCC(O)(C(F)F)C5)nc(OC[C@@]56CCCN5C[C@H](F)C6)nc4c3F)c12 (single isomer, unassigned) [Example 41]	25	1	–	–
[2H]C([2H])([2H])[C@@]1(O)CCCN(c2nc(OC[C@@]34CCCN3C[C@H](F)C4)nc3c(F)c(-c4cc(O)cc5ccc(F)c(CC)c45)ncc23)C1 [Example 176, (R)-1-(7-(8-Ethyl-7-fluoro-3-hydroxynaphthalen-1-yl)-8-fluoro-2-(((2R,7aS)-2-fluorotetrahydro-1H-pyrrolizin-7a(5H)-yl)methoxy)pyrido[4,3-d]pyrimidin-4-yl)-3-(methyl-d3)piperidin-3-ol]	–	–	–	5
[2H]C([2H])([2H])[C@]1(O)CCCN(c2nc(OC[C@@]34CCCN3C[C@H](F)C4)nc3c(F)c(-c4cc(O)cc5ccc(F)c(CC)c45)ncc23)C1 [Example 177, (S)-1-(7-(8-Ethyl-7-fluoro-3-hydroxynaphthalen-1-yl)-8-fluoro-2-(((2R,7aS)-2-fluorotetrahydro-1H-pyrrolizin-7a(5H)-yl)methoxy)pyrido[4,3-d]pyrimidin-4-yl)-3-(methyl-d3)piperidin-3-ol]	–	–	–	109
CCc1c(F)ccc2cc(O)cc(-c3ncc4c(N5CCC[C@@](C)(O)C5)nc(OC[C@]56CCCN5C[C@@H](F)C6)nc4c3F)c12 [Example 178, (R)-1-(7-(8-Ethyl-7-fluoro-3-hydroxynaphthalen-1-yl)-8-fluoro-2-(((2S,7aR)-2-fluorotetrahydro-1H-pyrrolizin-7a(5H)-yl)methoxy)pyrido[4,3-d]pyrimidin-4-yl)-3-methylpiperidin-3-ol bis(2,2,2-trifluoroacetate)]	–	–	–	8

More lines, main results first:

IC50 [1, 3] [nM]	IC50 [2] [nM]	IC50 [1, 4] [nM]	Structure (SMILES)	IC50 [1, 5] [nM]
119	5	–	CCc1c(F)ccc2cc(O)cc(-c3ncc4c(N5CC(C)CC(O)C5)nc(OC[C@@]56CCCN5C[C@H](F)C6)nc4c3F)c12 (mixture of isomers) [Example 96, rac-(3R,5S)-1-(7-(8-Ethyl-7-fluoro-3-hydroxynaphthalen-1-yl)-8-fluoro-2-(((2R,7aS)-2-fluorotetrahydro-1H-pyrrolizin-7a(5H)-yl)methoxy)pyrido[4,3-d]pyrimidin-4-yl)-5-methylpiperidin-3-ol]	–
83	3	–	CCc1c(F)ccc2cc(O)cc(-c3ncc4c(N5C[C@@H](O)C[C@@H](F)C5)nc(OC[C@@]56CCCN5C[C@H](F)C6)nc4c3F)c12 (mixture of isomers) [Example 115, rac-(3S,5R)-1-(7-(8-Ethyl-7-fluoro-3-hydroxynaphthalen-1-yl)-8-fluoro-2-(((2R,7aS)-2-fluorotetrahydro-1H-pyrrolizin-7a(5H)-yl)methoxy)pyrido[4,3-d]pyrimidin-4-yl)-5-fluoropiperidin-3-ol]	–
792	4	–	CCc1c(F)ccc2cc(O)cc(-c3ncc4c(N5C[C@@H](O)C[C@H](F)C5)nc(OC[C@@]56CCCN5C[C@H](F)C6)nc4c3F)c12 (racemic) [Example 116, rac-(35,5S)-1-(7-(8-Ethyl-7-fluoro-3-hydroxynaphthalen-1-yl)-8-fluoro-2-(((2R,7aS)-2-fluorotetrahydro-1H-pyrrolizin-7a(5H)-yl)methoxy)pyrido[4,3-d]pyrimidin-4-yl)-5-fluoropiperidin-3-ol]	–
810	38	–	CCc1c(F)ccc2cc(O)cc(-c3ncc4c(N5CCC[C@H]6OCC[C@H]65)nc(OC[C@@]56CCCN5C[C@H](F)C6)nc4c3F)c12 (relative stereo) [Example 42, rel-5-Ethyl-6-fluoro-4-(8-fluoro-2-(((2R,7aS)-2-fluorotetrahydro-1H-pyrrolizin-7a(5H)-yl)methoxy)-4-((3aR,7aR)-hexahydrofuro[3,2-b]pyridin-4(2H)-yl)pyrido[4,3-d]pyrimidin-7-yl)naphthalen-2-ol]	–
3700	9	–	CCc1c(F)ccc2cc(O)cc(-c3ncc4c(N5CC[C@H](O)[C@H](O)C5)nc(OC[C@@]56CCCN5C[C@H](F)C6)nc4c3F)c12 (relative stereo) [Example 100, rel-(3R,4S)-1-(7-(8-Ethyl-7-fluoro-3-hydroxynaphthalen-1-yl)-8-fluoro-2-(((2R,7aS)-2-fluorotetrahydro-1H-pyrrolizin-7a(5H)-yl)methoxy)pyrido[4,3-d]pyrimidin-4-yl)piperidine-3,4-diol]	–
> 10000	20	–	CCc1c(F)ccc2cc(O)cc(-c3ncc4c(N5CC[C@H](O)[C@@H](O)C5)nc(OC[C@@]56CCCN5C[C@H](F)C6)nc4c3F)c12 (relative stereo) [Example 101, rel-(3S,4S)-1-(7-(8-Ethyl-7-fluoro-3-hydroxynaphthalen-1-yl)-8-fluoro-2-(((2R,7aS)-2-fluorotetrahydro-1H-pyrrolizin-7a(5H)-yl)methoxy)pyrido[4,3-d]pyrimidin-4-yl)piperidine-3,4-diol]	–
414	3	–	CCc1c(F)ccc2cc(O)cc(-c3ncc4c(N5C[C@H](C)C[C@@H](O)C5)nc(OC[C@@]56CCCN5C[C@H](F)C6)nc4c3F)c12 (relative stereo) [Example 160, rel-(3R,5R)-1-(7-(8-Ethyl-7-fluoro-3-hydroxy-naphthalen-1-yl)-8-fluoro-2-(((2R,7aS)-2-fluorotetrahydro-1H-pyrrolizin-7a(5H)-yl)methoxy)pyrido[4,3-d]pyrimidin-4-yl)-5-methylpiperidin-3-ol]	–
–	3	116	CCc1c(F)ccc2cc(O)cc(-c3ncc4c(N5CCCC(C#N)CC5)nc(OC[C@@]56CCCN5C[C@H](F)C6)nc4c3F)c12 (single isomer, unassigned) [Example 54]	–
–	10	614	CCc1c(F)ccc2cc(O)cc(-c3ncc4c(N5CCCCC(C)(O)C5)nc(OC[C@@]56CCCN5C[C@H](F)C6)nc4c3F)c12 (single isomer, unassigned) [Example 136]	–
–	2	40	CCc1c(F)ccc2cc(O)cc(-c3ncc4c(N5CCCCC(C)(O)C5)nc(OC[C@@]56CCCN5C[C@H](F)C6)nc4c3F)c12 (single isomer, unassigned) [Example 137]	–
–	8	593	CCc1c(F)ccc2cc(O)cc(-c3ncc4c(N5CC6CC(C#N)C(C6)C5)nc(OC[C@@]56CCCN5C[C@H](F)C6)nc4c3F)c12 (single isomer, unassigned) [Example 145]	–
–	2	233	CCc1c(F)ccc2cc(O)cc(-c3ncc4c(N5CC6CC(C#N)C(C6)C5)nc(OC[C@@]56CCCN5C[C@H](F)C6)nc4c3F)c12 (single isomer, unassigned) [Example 146]	–
–	11	2730	CCc1c(F)ccc2cc(O)cc(-c3ncc4c(N5CC(C)CC(C(N)=O)C5)nc(OC[C@@]56CCCN5C[C@H](F)C6)nc4c3F)c12 (single isomer, unassigned) [Example 163]	–
–	3	1200	CCc1c(F)ccc2cc(O)cc(-c3ncc4c(N5CC(C)CC(C(N)=O)C5)nc(OC[C@@]56CCCN5C[C@H](F)C6)nc4c3F)c12 (single isomer, unassigned) [Example 164]	–
12	–	–	CCc1c(F)ccc2cc(O)cc(-c3ncc4c(N5CCC[C@@](C)(O)C5)nc(OCC5(CN(C)C)CC5)nc4c3F)c12 [Example 180, (R)-1-(2-((1-((Dimethylamino)methyl)cyclopropyl)methoxy)-7-(8-ethyl-7-fluoro-3-hydroxynaphthalen-1-yl)-8-fluoropyrido[4,3-d]pyrimidin-4-yl)-3-methylpiperidin-3-ol]	–
